From EP0134922A1, “2-Piperazino-pteridines, processes for their preparation and medicaments containing these compounds” (Dr. Karl Thomae GmbH, priority 1983, dated 1985)
Like-named read-outs stand apart in the source and are kept apart here.

Legend:
[1] = Orienting acute toxicity after a single oral dose; settings: mouse, in vivo, read-out: Orientierende aktute Toxizität
From the text: (§1) Die orientierende akute Toxizität der zu untersuchenden Substanzen wurde orientierend an Gruppen von je 5 Mäusen nach oraler Gabe einer Einzeldosis bestimmt (Beobachtungszeit: 14 Tage): […]

Mäusen = assay: Orienting acute toxicity after a single oral dose; settings: in vivo, po, 250 mg/kg
From the text: as §1

[2] = mice, groups of 5, oral single dose, observation time 14 days

SMILES | LD50 at 336 h [1, 2] [mg/kg] | Tieren gestorben (Mäusen) [von 5] | LD50 at 336 h ([1]; po) [mg/kg]
CSc1nc2c(N3CC[S+]([O-])CC3)nc(N3CCNCC3)nc2nc1NCc1ccccc1 [Substanz D, 7-Benzylamino-6-methylthio-4-(1-oxidothiomorpholino)-2-piperazino-pteridin] | > 250 | 0 | –
CN(C)c1nc2nc(N3CCNCC3)nc(N(C)C)c2nc1SCc1ccccc1 [Substanz C, 6-Benzylthio-4,7-bis-(dimethylamino)-2-piperazino-pteridin] | > 250 | 0 | –
c1ccc(CSc2nc3c(N4CCOCC4)nc(N4CCNCC4)nc3nc2N2CCOCC2)cc1 [Substanz A, 6-Benzylthio-4,7-dimorpholino-2-piperazino-pteridin] | > 250 | 0 | –
CN(C)c1nc(N2CCNCC2)nc2nc(NCc3ccccc3)c(Cl)nc12 [Substanz E, 6-Chlor-2-piperazino-4-dimethyl-amino-7-benzylamino-pteridin] | – | 0 | > 250
CN(C)c1nc2nc(N3CCNCC3)nc(N(C)C)c2nc1Cl [Substanz B, 6-Chlor-4,7-bis-(dimethylamino)-2-piperazino-pteridin] | – | 0 | > 250
